Consider 26 molecules from ChEMBL document CHEMBL4265946, “Activity of oxygen-versus sulfur-containing analogs of the Flex-Het anticancer agent SHetA2” (Eur J Med Chem, 2018).

Where only a bound is given, the exact number is not on record here.

Series [1] has as its system A2780. In words: Growth inhibition of human A2780 cells at 10 uM after 72 hrs by CellTiter-96 assay relative to control. The note with it: A2780, 72 h, read-out: GI. It counts as functional.
Series [2] concerns A2780. Kind of series: Growth inhibition of human A2780 cells after 72 hrs by CellTiter-96 assay. It counts as functional, cell-based. The note with it: A2780, 72 h.
A short description of series [3]: Toxicity in dog. It counts as organism-based, Canis lupus familiaris. Particulars: in vivo.
Series [4] can be described thus: Toxicity in rat. Type of series: organism-based. Particulars: in vivo.

The IC50 is the point on the concentration scale where inhibition reaches its midpoint. Read a high IC50 as weaker potency. Consider `CC1(C)CCOc2ccc(NC(=S)Nc3ccc(OC(F)(F)F)cc3)cc21`, for which the inhibition of growth at 10 µM in the series on A2780 [1] was 16%. The IC50 in the series with A2780 [2] was determined as 4.3 µM.
The corresponding values for `CCC1(CC)CC(C)(C)Oc2ccc(NC(=O)Nc3ccc([N+](=O)[O-])cc3)cc21` are 93.7% and 2.05 µM.
In the case of `CCC1(CC)CC(CC)(CC)c2cc(NC(=O)Nc3ccc(C(F)(F)F)cc3)ccc2O1`, the inhibition of growth at 10 µM in the series with A2780 [1] turned out to be 86.2%. This molecule gave an IC50 in the series with A2780 [2] of 2 µM.
The corresponding values for `CCC1(CC)CC(C)(C)c2cc(NC(=O)Nc3ccc(C(F)(F)F)cc3)ccc2O1` are 92.4% and 2.45 µM.
As for `CC1(C)CCOc2ccc(NC(=O)Nc3ccc([N+](=O)[O-])cc3)cc21`, the inhibition of growth at 10 µM in the series on A2780 [1] amounted to 74%. Further, the 50% inhibitory concentration (IC50) with A2780 [2] is 6.7 µM.
As for `CCC1(CC)CC(CC)(CC)c2cc(NC(=S)Nc3ccc([N+](=O)[O-])cc3)ccc2O1`, the inhibition of growth at 10 µM with A2780 [1] came out at 94%. In addition, it took 4.6 µM to reach half-maximal inhibition with A2780 [2] (IC50).
The corresponding values for `CC1(C)CC(C)(C)c2cc(NC(=O)Nc3ccc(OC(F)(F)F)cc3)ccc2O1` are 91.5% and 4.56 µM.
As to `CCC1(CC)CC(C)(C)Oc2ccc(NC(=O)Nc3ccc(C(F)(F)F)cc3)cc21`, the inhibition of growth at 10 µM in the series on A2780 [1] was found to be 93.3%. 2.43 µM corresponded to half-maximal inhibition with A2780 [2] (IC50).
On to `CC1(C)CC(C)(C)c2cc(NC(=O)Nc3ccc([N+](=O)[O-])cc3)ccc2O1`, for which, in the series with A2780 [1], the inhibition of growth at 10 µM was 79%. The IC50 in the series with A2780 [2] stood at 4.1 µM.
The corresponding values for `CC1(C)CCOc2ccc(NC(=S)Nc3ccc(C(F)(F)F)cc3)cc21` are 28% and 5.5 µM.
For `CC1(C)CC(C)(C)c2cc(NC(=S)Nc3ccc(S(N)(=O)=O)cc3)ccc2O1`, the inhibition of growth at 10 µM with A2780 [1] stood at 32%. This molecule also showed an IC50 with A2780 [2] of 6.9 µM.
The corresponding values for `CC1(C)CC(C)(C)c2cc(N/C(S)=N/c3ccc([N+](=O)[O-])cc3)ccc2O1` are 87% and 6.96 µM.
In the case of `CCOC(=O)c1ccc(N/C(S)=N/c2ccc3c(c2)C(C)(C)CC(C)(C)O3)cc1`, in the series on A2780 [1], the inhibition of growth at 10 µM is 26%. The molecule also gave an IC50 with A2780 [2] of 4.3 µM.
The corresponding values for `CC1(C)CCOc2ccc(NC(=S)Nc3ccc([N+](=O)[O-])cc3)cc21` are 19% and 6.4 µM.
In the same order, the values of `CCC1(CC)CC(C)(C)c2cc(NC(=O)Nc3ccc([N+](=O)[O-])cc3)ccc2O1` are 93.2% and 2.17 µM.
Consider `CC1(C)CCOc2ccc(NC(=O)Nc3ccc(OC(F)(F)F)cc3)cc21`, for which the inhibition of growth at 10 µM in the series on A2780 [1] was determined as 36%. Inhibition in the series with A2780 [2] was half-maximal at 3.5 µM (IC50).
In the same order, the values of `CCC1(CC)CC(CC)(CC)c2cc(NC(=O)Nc3ccc(OC(F)(F)F)cc3)ccc2O1` are 67% and 3 µM.
The corresponding values for `CC1(C)CC(C)(C)c2cc(NC(=O)Nc3ccc(C#N)cc3)ccc2O1` are 93% and 4.7 µM.
In the same order, the values of `CCC1(CC)CC(C)(C)c2cc(NC(=S)Nc3ccc([N+](=O)[O-])cc3)ccc2O1` are 93.9% and 2.9 µM.
Regarding `CCC1(CC)CC(CC)(CC)c2cc(NC(=O)Nc3ccc([N+](=O)[O-])cc3)ccc2O1`, the inhibition of growth at 10 µM in the series with A2780 [1] was determined as 91.4%. In the series on A2780 [2], it took 2.09 µM to reach half-maximal inhibition (IC50).
The corresponding values for `CCC1(CC)CC(C)(C)Oc2ccc(NC(=S)Nc3ccc(C(F)(F)F)cc3)cc21` are 11.8% and 4.7 µM.
As to `CCC1(CC)CC(C)(C)Oc2ccc(NC(=S)Nc3ccc([N+](=O)[O-])cc3)cc21`, in the series on A2780 [1], the inhibition of growth at 10 µM is 95.7%. In the series with A2780 [2], this molecule showed an IC50 of 3.69 µM.
As to `CC1(C)CC(C)(C)c2cc(NC(=O)Nc3ccc(C(F)(F)F)cc3)ccc2O1`, in the series with A2780 [1], the inhibition of growth at 10 µM came to 88.4%. In addition, the IC50 with A2780 [2] turned out to be 3.6 µM.
In the same order, the values of `CC1(C)CC(C)(C)c2cc(NC(=S)Nc3ccc(C(F)(F)F)cc3)ccc2O1` are 2% and 43.7 µM.
In the same order, the values of `CC1(C)CCOc2ccc(NC(=O)Nc3ccc(C(F)(F)F)cc3)cc21` are 47% and 5 µM.
As usually defined, the NOAEL is the highest tested level that showed no adverse finding. Turning to `CC1(C)CC(C)(C)c2cc(NC(=S)Nc3ccc([N+](=O)[O-])cc3)ccc2S1` [SHETA-2], the NOAEL in series [3] was above 1500 mg/kg/day; in series [4], 500 mg/kg/day. Further, the inhibition of growth at 10 µM in the series on A2780 [1] was determined as 84.3%. In addition, in the series on A2780 [2], half-maximal inhibition (IC50) was put at 3.17 µM.
